Measurements reported in US20260297081A1, “COMPOUNDS AND METHODS OF TREATING CANCERS” (Cullgen Inc., priority 2023, published 2026).
pIC50: −log10 of the molar value.

Tests used:
Format in all cases: cell-based
p-Rb = test: Immunoblotting of Rb phosphorylation (FIG. 1A-1B); conditions: Calu-1 (4 hours), MCF7 (24 hours)
Procedure: (§1) Calu-1 cells were treated with heterobifunctional compound CPD-10, or CDK4/6 inhibitor palbociclib at indicated concentrations for 4 hours (FIG. 1A). MCF7 cells were deprived of serum for 2 hours followed by treatment with CPD-10, or palbociclib at indicated concentrations for 24 hours (FIG. 1B).
(§2) Antibody and Reagent Anti-cyclin D1 (29785), anti-cyclin D2 (3741S), anti-cyclin D3 (2936S), anti-CDK4 (127905), anti-CDK6 (3136S), anti-phospho-Rb (8516S), anti-FoxM1 (54365), anti-cyclinA2(4656S), anti-vinculin antibody (187995) antibodies were purchased from Cell Signaling Technology. HRP-conjugated anti-α-tubulin antibody and anti-α-GAPDH antibody were purchased from GNI. Media, and other cell culture reagents were purchased from Thermo Fisher Scientific. CellTiter-Glo Luminescent Assay kit was purchased from Promega.
(§3) Calu-1, T47D, MCF7, HCC1428 and other cells were cultured at 37° C. with 5% CO2 in RPMI 1640 or DMEM medium supplemented with 10% fetal bovine serum. Cells were authenticated using the short tandem repeat (STR) assays. […]
(§4) Cultured cells were washed with cold PBS once and lysed in cold RIPA buffer supplemented with protease inhibitors and phosphatase inhibitors (Beyotime Biotechnology). […] Total protein concentrations in the lysates were determined following BCA assays (Beyotime Biotechnology). […] Protein bands were quantitated using the Image Lab software provided by Bio-Rad.

HCC1428 cells = test: Annexin V apoptosis flow cytometry, HCC1428 (FIG. 3B); conditions: HCC1428, dose approximating IC90, 6 days
Procedure: (§5) T47D cells were treated with DMSO, palbociclib, heterobifunctional compound CPD-10 for 6 days at doses approximating IC50 and IC90 concentrations as indicated (FIG. 3A). HCC1428 cells were treated with DMSO, palbociclib, heterobifunctional compound CPD-10, or its negative control compound CPD-143 for 6 days at doses approximating IC90 concentrations as indicated (FIG. 3B). Cells were harvested by trypsinization, staining was carried out using the Annexin V Apoptosis Detection Kit.
(§6) Assays were performed on the CytoFLEX Cytometer (Beckman Coulter), and data were analyzed using CytExpert software. For cell death and apoptosis analysis, cells were harvested by trypsinization, staining was carried out using the Annexin V Apoptosis Detection Kit (BD Biosciences). Briefly, cells were resuspended in 1× binding buffer and incubated with fluorochrome-conjugated Annexin V and 7-AAD for 15 min in darkness at room temperature.

cyclin A2 = test: Immunoblotting of cyclin A2 protein level (FIG. 1A-1B); conditions: Calu-1 (4 hours), MCF7 (24 hours)
Procedure: as §1, §2, §3, §4

CCND1 = test: Immunoblotting of CCND1 protein level in Calu-1 and MCF7 cells (FIG. 1A-1B)
Procedure: as §1, §2
Calu-1, T47D, MCF7, HCC1428 and other cells were cultured at 37° C. with 5% CO2 in RPMI 1640 or DMEM medium supplemented with 10% fetal bovine serum. Cells were authenticated using the short tandem repeat (STR) assays. Mycoplasma test results were negative. For palbo-resistant cell model, T47D cells were cultured long-term to resistance in the presence of 1 μM Palbociclib. Cells were deemed resistant when growing in the presence of Palbo at the same rate as parental cells.
Cultured cells were washed with cold PBS once and lysed in cold RIPA buffer supplemented with protease inhibitors and phosphatase inhibitors (Beyotime Biotechnology). The solutions were then incubated at 4 ? for 30 min with gentle agitation to fully lysed cells. Cell lysates were centrifuged at 13,000 rpm for 10 min at 4 ? and pellets were discarded. Total protein concentrations in the lysates were determined following BCA assays (Beyotime Biotechnology). Cell lysates were mixed with Laemmli loading buffer and heated at 99° C. for 5 min. Proteins were resolved on SDS-PAGE and visualized using Western ECL Substrate kits on a ChemiDoc MP Imaging system (Bio-Rad). Protein bands were quantitated using the Image Lab software provided by Bio-Rad.

[1] = test system: CCND1, CCND3, and CDK4 in MCF7 cells; test: Immunoblot of CCND1, CCND3 and CDK4 protein levels in MCF7 cells under serum starvation (FIG. 1B, 24 hours); conditions: MCF7, reduction of CCND1, CCND3, and CDK4 protein levels, serum starvation, 24 hours
Procedure: (§7) Specific exemplary heterobifunctional compounds were characterized in Calu-1, MCF7, T47D and other cells. Cells that express cyclin D1-3 and CDK4/6 proteins were treated with heterobifunctional compounds disclosed herein at indicated concentrations. MCF7 cells were deprived of serum for 2 hours followed by the treatment with heterobifunctional compounds. Cells were collected, lysed and subject to immunoblotting using an antibody specific to CCND1, CCND2, CCND3, CDK4, or FoxM1, cyclin A2, or phosphorylated Rb (S807/811) proteins. Tubulin or GAPDH was used as the loading control. DMSO treatment was used as the negative control.

[2] = test system: CCND1, CCND3, and CDK4 in Calu-1 cells; test: Immunoblot of CCND1, CCND3 and CDK4 protein levels in Calu-1 cells (FIG. 1A, 4 hours); conditions: Calu-1, reduction of CCND1, CCND3, and CDK4 protein levels
Procedure: as §7

T47D parental cells = test: CellTiter-Lumi cell viability assay, T47D parental cells, 6 days (FIG. 4); conditions: Homo sapiens, 144 h
Procedure: Furthermore, we developed one ER^+ breast cancer T47D model with acquired resistance after long period of treatment with 1 μM palbociclib (over IC90). Cells were deemed resistant when growing in the presence of palbo at the same rate as parental cells. Palbo resistance was determined by CellTiter-Lumi cell viability assay (FIG. 4, IC50>10,000 nM).

T47D cells [3] = test: Anti-proliferation (viability) of ER+ breast cancer T47D cells, 6 days (Table 7, FIG. 2B); conditions: Homo sapiens, 144 h; T47D cells, 6 days, 10-point serial dilution; read-out: GI IC50 in T47D
Method in brief: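 Cells were exposed to heterobifunctional compounds across a 10-point serial dilution, for 3 days with Calu-1 and 6 days with T47D. A negative control was included that keeps the DDB1 ligand and linker but carries a modified warhead that impairs CDK4 binding.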

CDK4 = CDK4 (Homo sapiens, UniProt P11802+Q16531); test: CDK4 percentage degradation in Calu-1 cells (Table 6); set-up: Cells that express cyclin D1-3 and CDK4/6 proteins were treated with heterobifunctional compounds; endogenous in cells; host or cells: Calu-1; conditions: 16 hours
Method in brief: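 Percentage degradation of Cyclin D1 and CDK4 derived from densitometry of ECL Western blots on lysates of Calu-1 cells. Treatment was 16 h with compound at either 40 nM or 200 nM.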

MCF7 cells = test: Anti-proliferation (viability) of MCF7 cells (Table 7, FIG. 2B); conditions: Homo sapiens, MCF7, MCF7 cells, 3-6 days, 10-point serial dilution; read-out: GI IC50 in MCF-7
T47D cells [4] = test: Annexin V apoptosis flow cytometry, T47D (FIG. 3A); conditions: 6 days
Procedure: as §5, §6

CDK4, sequence (P11802 2-303 limits assumed): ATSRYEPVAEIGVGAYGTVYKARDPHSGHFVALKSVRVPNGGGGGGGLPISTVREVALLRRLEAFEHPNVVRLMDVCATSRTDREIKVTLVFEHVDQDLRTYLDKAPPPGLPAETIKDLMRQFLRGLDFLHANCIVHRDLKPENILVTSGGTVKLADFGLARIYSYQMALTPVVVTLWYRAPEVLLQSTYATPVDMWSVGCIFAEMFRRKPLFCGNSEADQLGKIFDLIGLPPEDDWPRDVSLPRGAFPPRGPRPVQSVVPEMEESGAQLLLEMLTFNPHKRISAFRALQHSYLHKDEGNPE
CDK4, sequence (P24385 whole entry partner): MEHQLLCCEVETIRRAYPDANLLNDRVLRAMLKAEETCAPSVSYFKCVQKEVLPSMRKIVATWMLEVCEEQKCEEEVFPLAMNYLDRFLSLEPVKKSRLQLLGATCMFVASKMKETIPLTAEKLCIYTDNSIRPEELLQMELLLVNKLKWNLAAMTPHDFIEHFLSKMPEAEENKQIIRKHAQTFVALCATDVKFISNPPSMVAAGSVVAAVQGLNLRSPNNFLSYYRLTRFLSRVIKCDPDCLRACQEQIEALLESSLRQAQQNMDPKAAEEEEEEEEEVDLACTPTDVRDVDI
CDK4, sequence (Q16531 2-1140 limits assumed): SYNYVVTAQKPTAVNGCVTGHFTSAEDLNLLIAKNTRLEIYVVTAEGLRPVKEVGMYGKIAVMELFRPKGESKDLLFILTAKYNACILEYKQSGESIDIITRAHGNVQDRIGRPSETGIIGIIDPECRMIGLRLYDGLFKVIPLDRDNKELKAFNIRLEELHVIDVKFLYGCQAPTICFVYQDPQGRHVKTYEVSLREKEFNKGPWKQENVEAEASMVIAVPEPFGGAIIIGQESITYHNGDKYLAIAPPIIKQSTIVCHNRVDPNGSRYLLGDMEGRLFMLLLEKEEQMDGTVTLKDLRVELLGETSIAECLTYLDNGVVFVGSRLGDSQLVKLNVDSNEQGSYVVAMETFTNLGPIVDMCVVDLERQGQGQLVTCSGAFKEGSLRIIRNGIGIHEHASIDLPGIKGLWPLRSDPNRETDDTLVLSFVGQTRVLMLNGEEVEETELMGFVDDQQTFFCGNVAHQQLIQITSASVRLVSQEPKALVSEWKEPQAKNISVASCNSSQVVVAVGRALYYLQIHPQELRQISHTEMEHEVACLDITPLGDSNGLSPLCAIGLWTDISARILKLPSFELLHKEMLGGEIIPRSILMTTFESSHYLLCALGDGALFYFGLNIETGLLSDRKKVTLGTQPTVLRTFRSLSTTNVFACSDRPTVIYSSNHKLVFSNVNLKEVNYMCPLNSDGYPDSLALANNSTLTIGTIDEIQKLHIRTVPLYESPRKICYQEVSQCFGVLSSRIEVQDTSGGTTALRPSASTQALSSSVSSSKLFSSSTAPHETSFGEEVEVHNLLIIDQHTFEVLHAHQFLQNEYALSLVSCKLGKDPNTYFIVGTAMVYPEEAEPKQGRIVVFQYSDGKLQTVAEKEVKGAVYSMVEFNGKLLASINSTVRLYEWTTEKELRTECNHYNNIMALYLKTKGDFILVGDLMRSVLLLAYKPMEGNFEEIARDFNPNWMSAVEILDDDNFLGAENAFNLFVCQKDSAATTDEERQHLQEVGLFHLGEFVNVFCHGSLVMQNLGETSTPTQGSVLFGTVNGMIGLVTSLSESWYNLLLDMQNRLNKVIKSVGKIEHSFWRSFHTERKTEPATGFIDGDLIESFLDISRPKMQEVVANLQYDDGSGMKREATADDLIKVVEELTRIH

DC50 [1]: < 20 nM | DC50 [2]: < 5 nM | pIC50 (T47D cells [3]): ≥ 7.30 | inhibition at 0.04 µM (CDK4; 40 nM): 50 to 80% | inhibition at 0.2 µM (CDK4; 200 nM): > 80% | pIC50 (MCF7 cells): 7.00 to 7.30
SMILES: CNc1ccc(C(=O)Nc2ccc(N(C)C)nn2)c(NCCCCCCCNC(=O)CN2CCN(c3ccc(Nc4ncc5c(C)c(C(C)=O)c(=O)n(C6CCCC6)c5n4)nc3)CC2)n1 [CPD-10, 2-((7-(2-(4-(6-((6-acetyl-8-cyclopentyl-5-methyl-7-oxo-7,8-dihydropyrido[2,3-d]pyrimidin-2-yl)amino)pyridin-3-yl)piperazin-1-yl)acetamido)heptyl)amino)-N-(6-(dimethylamino)pyridazin-3-yl)-6-(methylamino)nicotinamide]
Rb phosphorylation (p-Rb): inhibited downstream FoxM1 and cyclin A2 protein levels, and Rb phosphorylation in a concentration-dependent manner | Annexin V+ population (HCC1428 cells): 55.8% | cyclin A2 protein level (cyclin A2): inhibited downstream FoxM1 and cyclin A2 protein levels, and Rb phosphorylation in a concentration-dependent manner | CCND1 protein level (CCND1; Calu-1 cells, 4 hours): reduced CCND1, CCND3, and CDK4 protein levels in a concentration-dependent manner in both cell lines | CCND1 protein level (CCND1; MCF7 cells, serum deprived 2 hours, treated 24 hours): reduced CCND1, CCND3, and CDK4 protein levels in a concentration-dependent manner in both cell lines | pIC50 (T47D parental cells): 7.71 | Annexin V+ population (T47D cells [4]; 15 nM): 20.9% | Annexin V+ population (T47D cells [4]; 200 nM): 62.2%
